The record followed here is article PMC4791643, “Reconstruction of diaminopimelic acid biosynthesis allows characterisation of Mycobacterium tuberculosis N-succinyl-L,L-diaminopimelic acid desuccinylase” (Scientific Reports, 2016).

The test has as its target T1, MtDapE (Mycobacterium tuberculosis, UniProt P9WHS9).
T1 construct: gene dapE
Briefly: inhibition in coupled assay, preincubated with inhibitor, NADPH at […] nm. The format is biochemical. The following applies: for inhibition at 1000 µM: read-out: % inhibition at 1 mM.

T1 sequence (P9WHS9 whole entry, looked up): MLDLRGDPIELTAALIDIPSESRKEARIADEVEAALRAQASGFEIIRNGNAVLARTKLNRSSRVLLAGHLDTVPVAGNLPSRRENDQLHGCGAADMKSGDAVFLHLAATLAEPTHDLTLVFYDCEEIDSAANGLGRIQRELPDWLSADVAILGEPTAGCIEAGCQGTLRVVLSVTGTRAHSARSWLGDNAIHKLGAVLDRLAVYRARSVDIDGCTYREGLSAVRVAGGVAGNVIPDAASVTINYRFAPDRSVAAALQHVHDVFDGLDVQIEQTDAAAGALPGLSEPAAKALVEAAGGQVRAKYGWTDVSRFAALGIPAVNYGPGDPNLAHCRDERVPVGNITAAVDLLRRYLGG

For `CC(C)(S)[C@H](N)C(=O)O` [L-penicillamine], the inhibition – broadly, the drop in the measured response relative to a control, in per cent – at 1000 µM amounted to 79.4%.
Take `OB(O)c1cccs1` [2-thiopheneboronic acid]: the inhibition at 10000 µM (read-out: % inhibition at 10 mM) is 22.3%.
On to `C[C@H](CS)C(=O)N1CCC[C@H]1C(=O)O` [L-captopril], for which the inhibition at 1000 µM was determined as 23.3%.
